The source of these data is ChEMBL document CHEMBL1157838, “Cryptosphaerolide, a cytotoxic Mcl-1 inhibitor from a marine-derived ascomycete related to the genus Cryptosphaeria” (J Nat Prod, 2010).

The test system of assay [1] is HCT-116. The experiment in a line: Cytotoxicity against human HCT116 cells after 72 hrs by MTS/PMS assay. In kind it is functional, cell-based. To be noted: HCT-116, 72 h.
Assay [2] concerns the target Induced myeloid leukemia cell differentiation protein Mcl-1 (Homo sapiens, UniProt Q07820). Put plainly: Inhibition of Mcl1 protein by Mcl1/Bak fluorescence resonance assay.

As a reminder, the IC50 is the midpoint of a concentration-inhibition curve. A lower IC50 goes with greater potency in that assay.

Chain of Induced myeloid leukemia cell differentiation protein Mcl-1 (Q07820 whole entry): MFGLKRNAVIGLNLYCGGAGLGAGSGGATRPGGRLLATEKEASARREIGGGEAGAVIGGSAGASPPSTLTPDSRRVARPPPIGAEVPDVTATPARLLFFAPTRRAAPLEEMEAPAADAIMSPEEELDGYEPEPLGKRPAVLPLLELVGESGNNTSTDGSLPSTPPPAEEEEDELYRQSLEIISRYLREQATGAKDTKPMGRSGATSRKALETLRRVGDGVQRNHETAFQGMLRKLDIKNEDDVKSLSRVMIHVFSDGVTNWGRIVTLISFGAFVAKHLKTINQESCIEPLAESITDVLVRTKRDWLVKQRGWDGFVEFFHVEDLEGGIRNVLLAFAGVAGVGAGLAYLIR

For the compound `C=C1CO[C@@]2(O)[C@H]3O[C@]34[C@H](OC(=O)C(O)(CO)CC(C)CC(C)CC)CC[C@H](C)[C@@]4(C)C[C@@H]12` (stereo partly drawn) [CRYPTOSPHAEROLIDE], the IC50 in assay [1] turned out to be 4.5 µM; in assay [2], 11.4 µM.

As for `C=C1CO[C@@]2(OC)[C@H]3O[C@]34[C@H](OC(=O)C(O)(CO)CC(C)CC(C)CC)CC[C@H](C)[C@@]4(C)C[C@@H]12` (stereo partly drawn), inhibition in assay [2] was half-maximal at 12.5 µM (IC50).
